Assay results reported in EP0793481B1, “COSMETIC COMPOSITION CONTAINING HYDROXY ALKANOATE DERIVATIVES” (priority 1993, dated 1995).
Read-outs that look alike come from different tables or passages of the source.

Key:
[1] = Measurement of skin conductivity (SKICON 200) as index of skin moisturisation, panel of volunteers; type: in vivo, human; details: for mean adjusted SKICON 200 readings: 100mM in buffer (3.0%), 100µl, relative to pretreatment reading
From the text: The topical application to skin of hydroxyalkanoate derivatives improves the retention of moisture by the skin and/or increases the level of moisture in the skin to a significant extent. […] An increase in skin conductivity is thus used as an index of increase in skin moisturisation.
This method measures the cumulative effect of applying products to the skin, on the conductivity of the superficial stratum corneum.
It is well established that the conductivity of the skin, as measured by placing the probe of a suitable conductivity meter in contact with the skin, is proportional to the water content of the outermost strata of the epidermis. The measurement of skin conductivity can therefore be used to indicate the ability of a topically applied product to hydrate the epidermis: see D. van Neste, J. Dermatol Sci., 2, p119 - 124, (1991), "Comparative Study of Normal and Rough Human Skin Hydration in vivo: evaluation with four different instruments". The method is widely used and accepted as indicative of product skin moisturisation efficacy.
The device for measuring skin conductivity employed in this test is the SKICON 200, a skin hygrometer available from IBS Co.
A small panel of volunteers, greater than six in number and preferably from 12 to 20, is recruited for the test.
Two sites 3 x 4cm are marked onto each volar forearm at least 6cm from either the wrist or elbow and with a separation of at least 6cm. Each site is treated once a day for five consecutive days with 100µl of a single treatment material. Allocation of material to left or right arm, upper or lower site is varied to avoid site effects. A total of two treatment materials can be used, one site per panellist remaining untreated for the entire five day period.
On the first day of the test, panellists are allowed to equilibrate in a climate controlled environment (20°C 70% RH for 15 minutes with no significant sensory stimuli). Eight conductivity measurements are taken per site using random positions within the test site; these represent the baseline. 100µl of treatment material is then applied and gently rubbed into the test site for each of the three treatment sites. Further four sets of eight readings from the treatment sites are then taken one, two and four hours after application, again using the equilibration period in a climate controlled environment. This procedure is repeated on the following four days.
The effect of each treatment is then assessed using the following method: adjusted effect =(Mean treatment site reading)/(Mean pretreatment site reading) [formula]
This value is calculated for each treatment, for each timepoint on each day of treatment for each panellist, resulting in a final mean value for the adjusted effect for the entire panel also being obtained by calculation.
The following treatments were applied in this test • 1. 5mM Sorensons phosphate buffer pH 7.00 + 2% Nipagin • 2. 100mM Sodium dodecoyl lactylate in buffer (a concentration of 3.0%) • 3. No treatment
The results are shown in the table below which records the mean adjusted SKICON 200 readings (i.e. proportional to initial skin conductivity = moisturisation) at hourly periods up to 4 hours.

[2] = Penetration of acyl lactylates: serial tape stripping of skin and lactate assay (Sigma 735-10) of the tapes; details: result in words; 10% by weight solutions, four hours
Procedure: The penetration of acyl lactylate and lactic acid in this manner can be determined by serial tape stripping and by biochemical assay of free lactate from skin cells adhering to the tape.
The methodology employed using pig skin is as follows:
The tape employed in this test is Desquame tape available from Diastron. Following topical application to skin of acyl lactylate, pieces of this tape are applied to the skin and then removed, and skin cells are assayed for lactate using Sigma 735-10 lactate assay kit. Thus, by repeated stripping of the same area of skin the degree of penetration of the topically applied acyl lactylate and its cleavage by epidermal esterases can be determined.
10% by weight solutions of sodium lactate (control) and of five different sodium acyl lactylates having from C8 to C18 acyl chains, were prepared in pH 7.0 Sorenson's phosphate buffer, 5 mM. Seven pieces of full thickness skin, taken from pig ear, were cut to 4 x 4cm and pinned out. 100 µl aliquots of the 6 test solutions were applied to the entire surface of six pieces of skin, the remaining piece of skin was used as a no-treatment control. […]
Each tape was placed in a labelled 1ml tube and 800µl of 5.00mM phosphate buffer, pH 7.00 was added to each tube. […] The buffer reagent mixture from each tube was then transferred to microcuvettes and the absorbtion of the solutions measured at 540nm using a spectrophotometer.

[3] = Lactic acid on tape strips from volar forearm after lauryl lactate dispersion; type: in vivo, human; parameters: unit not given here; details: 2% by weight dispersion in water, 100 µl
Procedure: This dispersion was tested on the volar forearm of a human volunteer. 100 µl of the dispersion was applied to each of three areas (15cm^2) on the volar forearm, rubbed in and allowed to dry. Ten Desquarne tape strips were taken fropm a fourth, untreated area. After 1 hour ten tape strips were taken from one treated area. Ten tape strips were taken from the other treated areas after 3 and 8 hours respectively. The tape strips taken after 1 hour and 3 hours were stored at room temperature for the rest of the 8 hour period, allowing enzymic hydrolysis.
The amount of lactic acid on each tape strip was determined, by the procedure quoted in Example 1. […] Moreover, this is at all levels, indicating penetration of the lactate ester into the skin where it is hydrolysed.

[4] = Deposition of radiolabelled lactylate from diluted detergent composition after rinse-off, scintillation count of tape strips; type: in vitro ADME, pig; details: result in words, 0.12M, 100 µl, left for 10 seconds and rinsed off
Procedure: Radiolabelled sodium lauroyl lactylate, as used in Example 2, was incorporated into a detergent composition containing
This solution was diluted with about four times its own volume of water, so that the concentration of sodium lauroyl lactylate was 0.12M.
100 µl quantities of this diluted solution were applied to test pieces of pig ear, left for 10 seconds and rinsed off. Excess water was removed with cotton wool, and nine tape strips were taken. All the tape strips were placed in a vial with phosphate buffer and scintillation fluid. The radiolabel content was measured using a scintillation counter.

[5] = Hydrolysis in skin: thin-layer chromatography of radiolabel extracted from tape strips; type: in vitro ADME, pig; details: after six hours; for metabolised at 6 h / remaining at 6 h: pig, ear skin, topical or ocular, mean of three repeats; for metabolised at 6 h: spot of hydrolysis products, read-out: % of total label, peak 1; for remaining at 6 h: spot of the applied compound itself, read-out: % of total label, peak 2
Procedure: In a similar experiment nine tape strips were taken after six hours. The first three strips were incubated in 3ml of phosphate buffer. The next three strips and the final three strips were likewise incubated. After 30 minutes the buffer solutions were spotted onto a thin-layer chromatography plate (bearing silica gel as the stationary phase).
The plate was eluted with 80:20:2 hexane:ether:acetic acid mixture. The spots on the plate were detected and quantified by their emitted radiation. […] The results (mean of three repeats) were:
The results of thin layer chromatography, showing the extent of hydrolysis were: […]

## CCCCCCCCCCCC(=O)OC(C)C(=O)O (centres unmarked) [Na Acyl Lactylate, Sodium dodecoyl lactylate]
[1]; T=0 Hr
  mean adjusted SKICON 200 readings: 1.00
[1]; T=1 Hr
  mean adjusted SKICON 200 readings: 1.27
[1]; T=2 Hr
  mean adjusted SKICON 200 readings: 1.30
[1]; T=4 Hr
  mean adjusted SKICON 200 readings: 1.31
[1]; result in words, compared with the buffer alone
  moisturisation of the skin: significant moisturisation of the skin was achieved

## CC(O)C(=O)O (centres unmarked) [G, sodium lactate, reference compound]
[2]
  penetration into the stratum corneum: virtually no penetration occurs

## CCCCCCCCCCCCOC(=O)C(C)O (centres unmarked) [Lauryl lactate]
[3]; 1 Hour, Tape No 1
  amount of lactic acid on each tape strip: 0.289
[3]; 1 Hour, Tape No 2
  amount of lactic acid on each tape strip: 0.361
[3]; 1 Hour, Tape No 3
  amount of lactic acid on each tape strip: 0.217
[3]; 1 Hour, Tape No 4
  amount of lactic acid on each tape strip: 0.124
[3]; 1 Hour, Tape No 5
  amount of lactic acid on each tape strip: 0.192
[3]; 1 Hour, Tape No 6
  amount of lactic acid on each tape strip: 0.201
[3]; 1 Hour, Tape No 7
  amount of lactic acid on each tape strip: 0.179
[3]; 1 Hour, Tape No 8
  amount of lactic acid on each tape strip: 0.177
[3]; 1 Hour, Tape No 9
  amount of lactic acid on each tape strip: 0.211
[3]; 1 Hour, Tape No 10
  amount of lactic acid on each tape strip: 0.169
[3]; 3 Hours, Tape No 1
  amount of lactic acid on each tape strip: 0.282
[3]; 3 Hours, Tape No 2
  amount of lactic acid on each tape strip: 0.250
[3]; 3 Hours, Tape No 3
  amount of lactic acid on each tape strip: 0.252
[3]; 3 Hours, Tape No 4
  amount of lactic acid on each tape strip: 0.262
[3]; 3 Hours, Tape No 5
  amount of lactic acid on each tape strip: 0.485
[3]; 3 Hours, Tape No 6
  amount of lactic acid on each tape strip: 0.487
[3]; 3 Hours, Tape No 7
  amount of lactic acid on each tape strip: 0.271
[3]; 3 Hours, Tape No 8
  amount of lactic acid on each tape strip: 0.246
[3]; 3 Hours, Tape No 9
  amount of lactic acid on each tape strip: 0.254
[3]; 3 Hours, Tape No 10
  amount of lactic acid on each tape strip: 0.269
[3]; 8 Hours, Tape No 1
  amount of lactic acid on each tape strip: 0.260
[3]; 8 Hours, Tape No 2
  amount of lactic acid on each tape strip: 0.210
[3]; 8 Hours, Tape No 3
  amount of lactic acid on each tape strip: 0.250
[3]; 8 Hours, Tape No 4
  amount of lactic acid on each tape strip: 0.222
[3]; 8 Hours, Tape No 5
  amount of lactic acid on each tape strip: 0.259
[3]; 8 Hours, Tape No 6
  amount of lactic acid on each tape strip: 0.230
[3]; 8 Hours, Tape No 7
  amount of lactic acid on each tape strip: 0.241
[3]; 8 Hours, Tape No 8
  amount of lactic acid on each tape strip: 0.234
[3]; 8 Hours, Tape No 9
  amount of lactic acid on each tape strip: 0.194
[3]; 8 Hours, Tape No 10
  amount of lactic acid on each tape strip: 0.449

## CCCCCCCCCCCC(=O)OC(C)C(=O)O (centres unmarked) [Lauroyl lactylate, Sodium lauroyl lactylate]
[4]
  deposition onto the skin: a small proportion of the radiolabelled lactylate had deposited onto the skin
[5]; Tapes 1-3
  metabolised at 6 h: 13.1%
  remaining at 6 h: 8.9%
[5]; Tapes 4-6
  metabolised at 6 h: 35.1%
  remaining at 6 h: 64.9%
[5]; Tapes 7-9
  metabolised at 6 h: 45.2%
  remaining at 6 h: 54.8%
[5]; result in words
  hydrolysis in the skin: had occurred in each instance and had occurred to the greatest extent with the material which had penetrated furthest into the skin
